# From patent US8309577B2, “Quinuclidine compounds as α-7 nicotinic acetylcholine receptor ligands” (Bristol-Myers Squibb Company, priority 2008, dated 2012)
# Read-outs that look alike come from different tables or passages of the source.
# Molecular target: T1, α-7 nicotinic acetylcholine receptor channel expressed in HEK 293 cells (Rattus norvegicus, UniProt Q05941)
# T1 construct: expressed in transfected cells
# Test: Ca2+-sensitive fluorescence-based FLIPR assay, α7 nicotinic ACh receptor channel function (agonist)
# Format: cell-based
# Description: I) α7 Nicotinic Acetycholine Receptor Binding. Membranes were prepared for binding using HEK293 cells stably expressing the rat α7 nicotinic acetycholine receptor (rat α7 nAChR). Cells were homogenized at 4° C. in hypotonic lysis buffer consisting of 10 mM Tris (pH 7.4), 5 mM EDTA and protease inhibitors and centrifuged at 32000×g for 20 minutes. The pellet was washed once in membrane wash buffer consisting of 50 mM Tris (pH 7.4), 1 mM EDTA and protease inhibitors and centrifuged at 32000×g for 20 minutes. This pellet was then resuspended in assay buffer consisting 50 mM KH2PO4 (pH 7.4 at 25° C.), 1 mM EDTA, 0.005% Triton-X 100 and 0.1% (v/v) Sigma Protease Inhibitor Cocktail. Aliquots were then frozen in dry ice/ethanol and kept at −80° C. until the day of the assay. II) A Ca^2+-Sensitive, Fluorescence-Based Assay α-7 for Nicotinic Acetylcholine Receptor Channel Function In Mammalian Cells (“FLIPR”). Summary: Lead compounds are evaluated for agonist activity at […], α3β4, […], and α1β1δ1ε sub-types of nicotinic ACh receptor ion channels expressed in mammalian HEK 293 cells. Agonist potency and efficacy values are determined from kinetic fluorescence Ca^2+ influx measurements made using a 384 well FLIPR (Fluorescence Image Plate Reader). […] In this assay, channel expressing HEK cell lines seeded in 384 well assay plates are loaded with a membrane permeant fluorescent Ca^2+ indicator dye, whose 510 nm green emission signal increases in response to elevation of intracellular Ca^2+ concentration. The basal fluorescence from the cells is monitored in real time, followed by the acute addition of test compounds.
# Materials and Methods: Reagents: The acetomethoxy (AM) ester of the Ca^2+ indicator dye Fluo-4 was obtained from InVitrogen, (Carlsbad, Calif.). Acetylcholine and all buffer constituents were purchased from Sigma Chemical Company, St. Louis, Mo. G418 and Minimal Essential Medium were purchased from InVitrogen Life Technologies, Carlsbad, Calif. Fetal bovine serum was purchased from (InVitrogen, Carlsbad, Calif.).
# Cell Culture: HEK-293 cells were grown in Minimal Essential Medium containing 10% (v/v) fetal bovine serum at 37° C. in a 5% CO2 incubator. HEK-293 cells stably expressing the ion channels were grown in the same medium with the addition of 500 μg/ml G418.
# Ca^2+ flux assays of Ca^2+ channels expressed in HEK-293 cells: HEK-293 cells expressing the ion channels of interest were plated in 384 well, black-walled, clear-bottomed, poly-D-lysine coated plates at a density of ˜20,000 cells/well in 20 μl of Minimal Essential Medium containing 10% (v/v) fetal bovine serum and incubated for 2 days at 29° C. in a 5% CO2 incubator. Prior to assay, cells were loaded with the Fluo-4 AM ester. […] Dye loading was allowed to proceed for 90 minutes at room temperature at which time the dye loading solution was removed and replaced with 40 μl/well of Hanks buffer. Cells loaded with dye were loaded onto a FLIPR384 (Molecular Devices, Sunnyvale, Calif.). Fluo-4 dye was excited using the 488 nm line of an argon laser. Emission was filtered using a 540+/−30 nm bandpass filter. For evaluation of the effects of test compounds using the Ca^2+ flux assay, compounds to be tested were provided in assay ready plates. For nicotinic receptor ion channel expressing cells, the assay was initiated by the addition of 20 μl/well of Hanks buffer containing test compounds. For all assays, data were collected at 1 Hz for 10 seconds (baseline), at which time the compound containing stimulus buffers are added, and further measurements collected at 0.33 Hz for 3 min.
# Data Analysis: The statistical robustness of the nicotinic receptor Ca^2+ flux assays is determined from blanks and totals wells. […] The raw fluorescence units data files generated on the FLIPR plate reader are automatically exported and processed by in-house data analysis tools.
# [1] = FLIPR α7 activity rating (EC50, nM), Table 1, HEK 293 cells, agonist Ca2+ flux
# [2] = FLIPR α7 activity rating (EC50, nM), Table Ib, HEK 293 cells, agonist Ca2+ flux
# [3] = FLIPR α7 (EC50, nM), Table 1, HEK 293 cells, agonist Ca2+ flux
# [4] = FLIPR α7 (EC50, nM), Table Ib, HEK 293 cells, agonist Ca2+ flux
# T1 sequence (Q05941 23-502): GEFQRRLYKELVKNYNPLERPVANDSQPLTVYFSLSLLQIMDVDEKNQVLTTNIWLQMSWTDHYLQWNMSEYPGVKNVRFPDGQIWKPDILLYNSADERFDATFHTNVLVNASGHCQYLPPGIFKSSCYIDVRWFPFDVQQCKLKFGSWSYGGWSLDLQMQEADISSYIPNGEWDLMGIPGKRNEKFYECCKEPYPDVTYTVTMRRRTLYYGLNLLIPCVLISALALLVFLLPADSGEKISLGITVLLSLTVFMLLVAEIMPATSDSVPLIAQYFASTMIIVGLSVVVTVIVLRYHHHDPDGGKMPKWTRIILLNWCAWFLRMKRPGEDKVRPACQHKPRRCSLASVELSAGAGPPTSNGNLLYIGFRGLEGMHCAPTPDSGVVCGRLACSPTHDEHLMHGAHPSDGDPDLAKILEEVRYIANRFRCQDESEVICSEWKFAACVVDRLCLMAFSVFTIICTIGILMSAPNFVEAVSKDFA
Compound,EC50 [1] [nM],other results
Cc1cc(C)c2c(NC3=NC[C@@]4(CN5CCC4CC5)O3)nsc2n1 [Example 145],1000 to 100000,–
"Cc1ccc2nc(NC3=NC[C@@]4(CN5CCC4CC5)O3)oc2c1 [Example 336, (2R)—N-(6-Methyl-1,3-benzoxazol-2-yl)-4′H-spiro[4-azabicyclo[2.2.2]octane-2,5′-[1,3]oxazol]-2′-amine]",–,EC50 [2]: < 100 nM
Cc1ccc(C)c2sc(NC3=NCC4(CN5CCC4CC5)O3)nc12 (stereo not shown) [Example 102],< 100,–
Brc1cnc(NC2=NC[C@@]3(CN4CCC3CC4)O2)nc1-c1ccccc1 [Example 193],< 100,EC50 [3]: 17 nM
"CSc1cnc2nc(NC3=NC[C@@]4(CN5CCC4CC5)O3)sc2n1 [Example 264, (R)—N-(6-(methylthio)thiazolo[5,4-h]pyrazin-2-yl)-4H-1′-azaspiro[oxazole-5,3′-bicyclo[2.2.2]octan]-2-amine]",100 to 1000,–
"Clc1cccnc1NC1=NC[C@@]2(CN3CCC2CC3)O1 [Example 283, (R)—N-(3-Chloropyridin-2-yl)-4H-1′-azaspiro[oxazole-5,3′-bicyclo[2.2.2]octan]-2-amine]",100 to 1000,–
Cn1ccc(NC2=NC[C@@]3(CN4CCC3CC4)O2)n1 [Example 190],1000 to 100000,–
COc1ccn2nc(NC3=NC[C@@]4(CN5CCC4CC5)O3)nc2c1 [Example 125],< 100,EC50 [3]: 17 nM
c1ccc2c(NC3=NCC4(CN5CCC4CC5)O3)n[nH]c2c1 (stereo not shown) [Example 113],< 100,–
COc1ccc2c(NC3=NC[C@@]4(CN5CCC4CC5)O3)nn(C)c2c1 [Example 211],100 to 1000,–
"Cc1nc(NC2=NC[C@@]3(CN4CCC3CC4)O2)c(Cl)cc1Cl [Example 308, (R)—N-(3,5-Dichloro-6-methylpyridin-2-yl)-4H-1′-azaspiro[oxazole-5,3′-bicyclo[2.2.2]octan]-2-amine]",–,EC50 [4]: 59 nM; EC50 [2]: < 100 nM
"COc1ccc2nc(NC3=NC[C@@]4(CN5CCC4CC5)O3)cnc2c1 [Example 38, (R)—N-(6-Methoxyquinoxalin-2-yl)-4H-1′-azaspiro[oxazole-5,3′-bicyclo[2.2.2]octan]-2-amine]",< 100,–
"CCOc1ccc2nc(NC3=NCC4(CN5CCC4CC5)O3)sc2c1 (single isomer, unassigned) [Example 11b, N-(6-Ethoxybenzo[d]thiazol-2-yl)-4H-1′-azaspiro[oxazole-5,3′-bicyclo[2.2.2]octan]-2-amine]",100 to 1000,EC50 [3]: 213 nM
"Clc1cccc2cnc(NC3=NC[C@@]4(CN5CCC4CC5)O3)cc12 [Example 338A, (R)—N-(5-chloroisoquinolin-3-yl)-4H-1′-azaspiro[oxazole-5,3′-bicyclo[2.2.2]octan]-2-amine]",–,EC50 [2]: < 100 nM
"c1cncc(-c2ccnc(NC3=NC[C@@]4(CN5CCC4CC5)O3)c2)c1 [Example 296, (R)—N-(3,4′-Bipyridin-2′-yl)-4H-1′-azaspiro[oxazole-5,3′-bicyclo[2.2.2]octan]-2-amine]",–,EC50 [2]: < 100 nM
COc1ccc2nc(NC3=NC[C@@]4(CN5CCC4CC5)O3)c(C)cc2c1 [Example 179],100 to 1000,–
"COc1nc(C)nc2sc(NC3=NC[C@@]4(CN5CCC4CC5)O3)nc12 [Example 273, (R)—N-(7-Methoxy-5-methylthiazolo[5,4-d]pyrimidin-2-yl)-4H-1′-azaspiro[oxazole-5,3′-bicyclo[2.2.2]octan]-2-amine]",1000 to 100000,–
"Cc1nc(NC2=NC[C@@]3(CN4CCC3CC4)O2)cc2cc(F)ccc12 [Example 325, (R)—N-(6-Fluoro-1-methylisoquinolin-3-yl)-4H-1′-azaspiro[oxazole-5,3′-bicyclo[2.2.2]octan]-2-amine]",–,EC50 [4]: 139 nM; EC50 [2]: 100 to 1000 nM
"Fc1ccc(Br)c2cnc(NC3=NC[C@@]4(CN5CCC4CC5)O3)cc12 [Example 346, (R)—N-(8-Bromo-5-fluoroisoquinolin-3-yl)-4H-1′-azaspiro[oxazole-5,3′-bicyclo[2.2.2]octan]-2-amine]",–,EC50 [4]: 310 nM; EC50 [2]: 100 to 1000 nM

Compound,EC50 [1] [nM],other results
Brc1ccc2c(NC3=NC[C@@]4(CN5CCC4CC5)O3)n[nH]c2c1 [Example 133],< 100,–
"O=c1ccc2nc(NC3=NC[C@@]4(CN5CCC4CC5)O3)sc2[nH]1 [Example 237, (R)-2-(4H-1′-azaspiro[oxazole-5,3′-bicyclo[2.2.2]octane]-2-ylamino)thiazolo[5,4-b]pyridin-5(4H)-one]",< 100,–
c1ccc(-c2csc(NC3=NCC4(CN5CCC4CC5)O3)n2)nc1 (stereo not shown) [Example 88],100 to 1000,–
"c1cnc(-c2cc(NC3=NC[C@@]4(CN5CCC4CC5)O3)ncn2)cn1 [Example 334, (R)—N-(6-(Pyrazin-2-yl)pyrimidin-4-yl)-4H-1′-azaspiro[oxazole-5,3′-bicyclo[2.2.2]octan]-2-amine]",–,EC50 [2]: < 100 nM
"CC(C)c1csc(NC2=NCC3(CN4CCC3CC4)O2)n1 (single isomer, unassigned) [Example 15a]",1000 to 100000,EC50 [3]: 6350 nM
"COc1ccc2nc(NC3=NCC4(CN5CCC4CC5)O3)sc2n1 (single isomer, unassigned) [Example 2b]",100 to 1000,–
"COc1ccc2nc(NC3=NCC4(CN5CCC4CC5)O3)sc2c1 (single isomer, unassigned) [Example 5b]",< 100,–
"Brc1cnc2nc(NC3=NC[C@@]4(CN5CCC4CC5)O3)sc2n1 [Example 263, (R)—N-(6-bromothiazolo[5,4-b]pyrazin-2-yl)-4H-1′-azaspiro[oxazole-5,3′-bicyclo[2.2.2]octan]-2-amine]",< 100,–
COc1ccc2c(c1)c(NC1=NC[C@@]3(CN4CCC3CC4)O1)nn2C [Example 212],1000 to 100000,–
"COCc1cc(NC2=NC[C@@]3(CN4CCC3CC4)O2)ncn1 [Example 218, (R)—N-(6-(methoxymethyl)pyrimidin-4-yl)-4H-1′-azaspiro[oxazole-5,3′-bicyclo[2.2.2]octan]-2-amine]",100 to 1000,EC50 [3]: 285 nM
"c1cc(-c2cscn2)cc(NC2=NC[C@@]3(CN4CCC3CC4)O2)n1 [Example 304, (R)—N-(4-(Thiazol-4-yl)pyridin-2-yl)-4H-1′-azaspiro[oxazole-5,3′-bicyclo[2.2.2]octan]-2-amine]",–,EC50 [2]: < 100 nM
Cc1cc(-c2ccccc2)nc(NC2=NC[C@@]3(CN4CCC3CC4)O2)n1 [Example 180],100 to 1000,–
c1cnc2ccc(NC3=NCC4(CN5CCC4CC5)O3)cc2c1 (stereo not shown) [Example 85],1000 to 100000,–
"Cc1cc(NC2=NC[C@@]3(CN4CCC3CC4)O2)nc(C)c1C#N [Example 248, (R)-6-(4H-1′-Azaspiro[oxazole-5,3′-bicyclo[2.2.2]octane]-2-ylamino)-2,4-dimethylnicotinonitrile]",100 to 1000,–
"O=C1CCCN1c1cnc(NC2=NC[C@@]3(CN4CCC3CC4)O2)cn1 [Example 35, (R)-1-(5-(4H-1′-Azaspiro[oxazole-5,3′-bicyclo[2.2.2]octane]-2-ylamino)pyrazin-2-yl)pyrrolidin-2-one]",1000 to 100000,EC50: 4030 nM
"Cc1nc(NC2=NC[C@@]3(CN4CCC3CC4)O2)cc2c(F)cc(F)cc12 [Example 328, (R)—N-(5,7-Difluoro-1-methylisoquinolin-3-yl)-4H-1′-azaspiro[oxazole-5,3′-bicyclo[2.2.2]octan]-2-amine]",–,EC50 [2]: 100 to 1000 nM
Brc1cnc(NC2=NCC3(CN4CCC3CC4)O2)cn1 (stereo not shown) [Example 107],100 to 1000,–
Cc1cc(C)nc(NC2=NC[C@@]3(CN4CCC3CC4)O2)n1 [Example 176],100 to 1000,–
